How the values were obtained:
Assay type in all cases: cell-based
[1] = test system: IL6; assay: R848 stimulated IL6 inhibition assay in PBMC; conditions: human PBMCs, R848 stimulation, compound overnight, IL6 by MSD after 24 hrs; for Dmax: Homo sapiens, 24 h, read-out: R848 stim IL6 inhibition Dmax; for IC50: read-out: R848 stim IL6 inhibition IC50
Method in brief: (§1)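 Seed human PBMC, 2.0×10^6 cells/mL → compound overnight → stimulant (IL-1β, LPS or R848) at per-donor EC50 → 24 hrs → media to MSD for IL6/IL8.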

[2] = target: T1, IRAK-4 (Homo sapiens, UniProt Q9NWZ3); assay: IRAK-4 ELISA, PBMC degradation; set-up: endogenous in cells; host or cells: PBMC; conditions: treated overnight
T1 sequence (Q9NWZ3 1-460): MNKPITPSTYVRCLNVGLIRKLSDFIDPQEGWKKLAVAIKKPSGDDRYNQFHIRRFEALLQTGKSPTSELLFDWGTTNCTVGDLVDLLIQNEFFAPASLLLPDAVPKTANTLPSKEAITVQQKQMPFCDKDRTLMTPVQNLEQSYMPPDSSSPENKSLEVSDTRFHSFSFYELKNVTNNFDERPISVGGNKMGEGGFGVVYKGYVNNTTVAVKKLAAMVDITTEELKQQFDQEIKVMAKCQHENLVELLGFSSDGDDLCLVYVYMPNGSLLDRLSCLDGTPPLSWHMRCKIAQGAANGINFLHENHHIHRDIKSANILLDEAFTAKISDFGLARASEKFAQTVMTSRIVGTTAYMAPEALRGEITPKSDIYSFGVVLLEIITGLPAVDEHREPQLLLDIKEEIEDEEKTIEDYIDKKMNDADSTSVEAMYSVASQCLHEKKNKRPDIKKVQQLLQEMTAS
Method in brief: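 Overnight compound treatment, started on the day of plating, of OCI-Ly10 (1×10^6/ml) and PBMC (2×10^6/ml) cultures. Lysates are collected and IRAK-4 content is read by sandwich ELISA.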

[3] = test system: IL6; assay: LPS stimulated IL6 inhibition assay in PBMC; conditions: human PBMCs, LPS stimulation, compound overnight, IL6 by MSD after 24 hrs; for Dmax: read-out: LPS Stim IL6 inhibition Dmax; for IC50: read-out: LPS stim IL6 inhibition IC50
Method in brief: as §1

Row | SMILES | IC50 ([1]; PBMC) | DC50 [2] | Dmax [2] | PBMC DC90 [2] | IC50 ([3]; Homo sapiens, PBMC, 24 h) | IC50 [1] | PBMC Dmax [2] | IC50 [3] | Dmax ([1]; PBMC) | Dmax ([3]; Homo sapiens, PBMC, 24 h) | R848 stim IL6 inhibition Dmax [1] | LPS Stim IL6 inhibition Dmax [3]
1 | O=C1CCC(N2C(=O)c3cccc(N4CC5(CCCN(C6CCC(n7cc8cc(NC(=O)c9cnn%10cccnc9%10)c(OCC9CC9)cc8n7)CC6)C5)C4)c3C2=O)C(=O)N1 (stereo not shown) [Example 419] | 10 to 50 nM | 1 to 5 nM | 70 to 80% | A (A represents a DC90 value <10.0 nM) | < 10 nM | – | – | – | 80 to 90% | 70 to 80% | – | –
2 | O=C1CCC(N2Cc3cc(N4CC(O[C@H]5CC[C@H](n6cc7cc(NC(=O)c8cnn9cccnc89)c(OCC8CC8)cc7n6)CC5)C4)ccc3C2=O)C(=O)N1 (stereo partly shown) [Example 423, N-[6-(cyclopropylmethoxy)-2-[(1r,4r)-4-({1-[2-(2,6-dioxopiperidin-3-yl)-1-oxo-2,3-dihydro-1H-isoindol-5-yl]azetidin-3-yl}oxy)cyclohexyl]-2H-indazol-5-yl]pyrazolo[1,5-a]pyrimidine-3-carboxamide] | 10 to 50 nM | 1 to 5 nM | ≥ 90% | B (B represents a DC90 value ≥10.0 nM and <25.0 nM) | 10 to 50 nM | – | – | – | ≥ 90% | 80 to 90% | – | –
3 | CC(C)Oc1cc2nn([C@H]3CC[C@H](OC4CN(c5ccc6c(c5)CN(C5CCC(=O)NC5=O)C6=O)C4)CC3)cc2cc1NC(=O)c1cnn2cccnc12 (stereo partly shown) [Example 424] | < 10 nM | 1 to 5 nM | 80 to 90% | B (B represents a DC90 value ≥10.0 nM and <25.0 nM) | < 10 nM | – | – | – | 80 to 90% | < 70% | – | –
4 | O=C1CCC(N2C(=O)c3ccc(N4CC[C@@H](O[C@H]5CC[C@@H](n6cc7cc(NC(=O)c8cnn9cccnc89)c(OCC8CC8)cc7n6)CC5)C4)cc3C2=O)C(=O)N1 (stereo partly shown) [Example 425] | 50 to 100 nM | ≥ 10 nM | – | D (D represents a DC90 value ≥50 nM) | 50 to 100 nM | – | – | – | 70 to 80% | 70 to 80% | – | –
5 | O=C1CCC(N2C(=O)c3ccc(N4CC[C@@H](O[C@H]5CC[C@H](n6cc7cc(NC(=O)c8cnn9cccnc89)c(OCC8CC8)cc7n6)CC5)C4)cc3C2=O)C(=O)N1 (stereo partly shown) [Example 426] | 50 to 100 nM | ≥ 10 nM | ≥ 90% | D (D represents a DC90 value ≥50 nM) | 50 to 100 nM | – | – | – | 80 to 90% | < 70% | – | –
6 | O=C1CCC(N2C(=O)c3ccc(N4CC[C@H](O[C@H]5CC[C@@H](n6cc7cc(NC(=O)c8cnn9cccnc89)c(OCC8CC8)cc7n6)CC5)C4)cc3C2=O)C(=O)N1 (stereo partly shown) [Example 427] | 10 to 50 nM | ≥ 10 nM | – | D (D represents a DC90 value ≥50 nM) | < 10 nM | – | – | – | < 70% | 70 to 80% | – | –
7 | O=C1CCC(N2C(=O)c3ccc(N4CC[C@H](O[C@H]5CC[C@@H](n6cc7cc(NC(=O)c8cnn9cccnc89)c(OCC8CC8)cc7n6)CC5)C4)cc3C2=O)C(=O)N1 (stereo partly shown) [Example 428] | – | 1 to 5 nM | ≥ 90% | B (B represents a DC90 value ≥10.0 nM and <25.0 nM) | – | 10 to 50 nM | – | 10 to 50 nM | – | – | A (A represents a Ymax value ≥90) | D (D represents a Ymax value <70)
8 | O=C1CCC(N2C(=O)c3ccc(N4CCN(C[C@H]5CC[C@H](n6cc7cc(NC(=O)c8cnn9cccnc89)c(OCC(F)F)cc7n6)CC5)CC4)cc3C2=O)C(=O)N1 (stereo partly shown) [Example 430] | 10 to 50 nM | 1 to 5 nM | ≥ 90% | A (A represents a DC90 value <10.0 nM) | 10 to 50 nM | – | – | – | ≥ 90% | 70 to 80% | – | –
9 | CC(C)Oc1cc2c(cc1NC(=O)c1cnn3cccnc13)CN([C@H]1CC[C@H](CN3CCN(c4ccc5c(c4)C(=O)N(C4CCC(=O)NC4=O)C5=O)CC3)CC1)C2=O (stereo partly shown) [Example 431] | 10 to 50 nM | 1 to 5 nM | ≥ 90% | A (A represents a DC90 value <10.0 nM) | 10 to 50 nM | – | – | – | ≥ 90% | 70 to 80% | – | –
10 | CC(C)Oc1cc2c(cc1NC(=O)c1cnn3cccnc13)CN([C@H]1CC[C@H](CN3CCC(c4ccc5c(c4)C(=O)N(C4CCC(=O)NC4=O)C5=O)CC3)CC1)C2=O (stereo partly shown) [Example 432] | 10 to 50 nM | 1 to 5 nM | ≥ 90% | A (A represents a DC90 value <10.0 nM) | 10 to 50 nM | – | – | – | ≥ 90% | 70 to 80% | – | –

More lines, main results first:

Row | IC50 ([1]; PBMC) | DC50 [2] | Dmax [2] | PBMC DC90 [2] | IC50 ([3]; Homo sapiens, PBMC, 24 h) | IC50 [1] | PBMC Dmax [2] | IC50 [3] | SMILES | Dmax ([1]; PBMC) | Dmax ([3]; Homo sapiens, PBMC, 24 h) | R848 stim IL6 inhibition Dmax [1] | LPS Stim IL6 inhibition Dmax [3]
11 | 10 to 50 nM | < 1 nM | ≥ 90% | A (A represents a DC90 value <10.0 nM) | < 10 nM | – | – | – | CC(C)Oc1cc2c(cc1NC(=O)c1cnn3cccnc13)CN(C1CCN(CC3CN(c4cccc5c4n(C)c(=O)n5C4CCC(=O)NC4=O)C3)CC1)C2=O (stereo not shown) [Example 381] | ≥ 90% | 70 to 80% | – | –
12 | 10 to 50 nM | < 1 nM | ≥ 90% | A (A represents a DC90 value <10.0 nM) | 10 to 50 nM | – | – | – | CC(C)Oc1cc2c(cc1NC(=O)c1cnn3cccnc13)CN(C[C@@H](F)C1CCN(CC3CN(c4cccc5c4n(C)c(=O)n5C4CCC(=O)NC4=O)C3)CC1)C2=O (stereo partly shown) [Example 382] | ≥ 90% | 70 to 80% | – | –
13 | – | < 1 nM | – | A (A represents a DC90 value <10.0 nM) | – | < 10 nM | A (A represents a Dmax value ≥90) | ≥ 100 nM | CC(C)Oc1cc2c(cc1NC(=O)c1cnn3cccnc13)CN([C@H]1CC[C@H](N(C)C3CN(c4cccc5c4n(C)c(=O)n5C4CCC(=O)NC4=O)C3)CC1)C2=O (stereo partly shown) [Example 384, N-(2-((1r,4r)-4-((1-(1-(2,6-dioxopiperidin-3-yl)-3-methyl-2-oxo-2,3-dihydro-1H-benzo[d]imidazol-4-yl)azetidin-3-yl)(methyl)amino)cyclohexyl)-6-isopropoxy-1-oxoisoindolin-5-yl)pyrazolo[1,5-a]pyrimidine-3-carboxamide] | – | – | A (A represents a Ymax value ≥90) | C (C represents a Ymax value ≥70 and <80)
14 | 10 to 50 nM | < 1 nM | 80 to 90% | A (A represents a DC90 value <10.0 nM) | ≥ 100 nM | – | – | – | C=Nc1c(C(=O)Nc2cc3cn(C4CCN(CC5(F)CN(c6cccc7c6n(C)c(=O)n7C6CCC(=O)NC6=O)C5)CC4)nc3cc2C2CC2)cnn1/C=C\C (stereo not shown) [Example 389] | ≥ 90% | ≥ 90% | – | –
15 | 10 to 50 nM | < 1 nM | ≥ 90% | A (A represents a DC90 value <10.0 nM) | 10 to 50 nM | – | – | – | CC(C)Oc1nc2c(cc1NC(=O)c1cnn3cccnc13)CN(C1CCN(CC3CN(c4ccc(C(=O)NC5CCC(=O)NC5=O)c(F)c4)C3)CC1)C2=O (stereo not shown) [Example 402] | 80 to 90% | < 70% | – | –
16 | < 10 nM | < 1 nM | 80 to 90% | A (A represents a DC90 value <10.0 nM) | 10 to 50 nM | – | – | – | O=C1CCC(N2C(=O)c3ccc(N4CCCC5(C4)CN([C@H]4CC[C@H](n6cc7cc(NC(=O)c8cnn9cccnc89)c(OCC8CC8)cc7n6)CC4)C5)cc3C2=O)C(=O)N1 (stereo partly shown) [Example 418] | ≥ 90% | 80 to 90% | – | –
17 | 10 to 50 nM | < 1 nM | ≥ 90% | A (A represents a DC90 value <10.0 nM) | < 10 nM | – | – | – | O=C1CCC(N2C(=O)c3ccc(C4CCN(C[C@H]5CC[C@H](n6cc7cc(NC(=O)c8cnn9cccnc89)c(OCC8CC8)cc7n6)CC5)CC4)cc3C2=O)C(=O)N1 (stereo partly shown) [Example 429, N-[6-(cyclopropylmethoxy)-2-[(1r,4r)-4-({4-[2-(2,6-dioxopiperidin-3-yl)-1,3-dioxo-2,3-dihydro-1H-isoindol-5-yl]piperidin-1-yl}methyl)cyclohexyl]-2H-indazol-5-yl]pyrazolo[1,5-a]pyrimidine-3-carboxamide] | ≥ 90% | 70 to 80% | – | –
18 | < 10 nM | < 1 nM | ≥ 90% | A (A represents a DC90 value <10.0 nM) | < 10 nM | – | – | – | O=C1CCC(N2Cc3ccc(N4CCN(C[C@H]5CC[C@H](n6cc7cc(NC(=O)c8cnn9cccnc89)c(OCC(F)F)cc7n6)CC5)CC4)cc3C2=O)C(=O)N1 (stereo partly shown) [Example 433] | ≥ 90% | 80 to 90% | – | –

Source: patent publication US20230099344A1, “COMPOUNDS AND METHODS FOR THE TARGETED DEGRADATION OF IRAK-4” (Arvinas Operations, Inc., priority 2021, published 2023)
